Measured values reported in PMC10376129, “Mechanistic Understanding of Idiosyncratic Drug-Induced Hepatotoxicity Using Co-Cultures of Hepatocytes and Macrophages” (Antioxidants, 2023).
“Also recorded” adds a separate entry of the source.

B1: interferon γ (protein, UniProt P01579 24-161, looked up)
Interferon gamma: QDPYVKEAENLKKYFNAGHSDVADNGTLFLGILKNWKEESDRKIMQSQIVSFYFKLFKNFKDDQSIQKSVETIKEDMNVKFFNSNKKKRDDFEKLTNYSVTDLNVQRKAIHELIQVMAELSPAAKTGKRKRSQMLFRG
notes: cytokine used with LPS to generate M1 macrophages

Legend:
[1] = system: HepG2 monocultures and different co-cultures of HepG2 and M1-THP-1 cells; test: Concentration-dependent toxicity compared across test systems (MTT viability); assay type: cell-based; conditions: 24 h exposure; for concentrations producing significant cell death / decrease in viability: Figure 6; for effect on viability in co-cultures compared to monocultures of HepG2 cells: co-culture ratios 1:10, 1:5, 1:2
Procedure: (§1) For the toxicity studies, HepG2 cells alone or in co-culture with different proportions of M1 macrophages were seeded in 96-well plates (15,000 cells/well) and were allowed to grow and equilibrate for 24 h. Then, cells were exposed for 24 h to eight concentrations of the tested compounds (TVX, LVX, TGZ, RGZ). Each experimental condition was assayed in triplicate wells. Test compounds were diluted in DMSO, and then easily diluted in the culture medium to obtain the desired final concentrations (Table 1). The final DMSO concentration in the culture medium never exceeded 0.5% (v/v), and the control cultures were treated with the same amount of solvent.
(§2) Cytotoxicity was assessed by means of the tetrazolium reduction colorimetric assay (MTT test) as previously described in detail.
Data represent triplicate measurements and are expressed as the mean ± SD. Student’s t-test was used for statistical evaluations between two groups, whereas one-way ANOVA followed by Tukey’s multiple comparisons test was used when comparing 3 or more groups. The level of significance was chosen as p < 0.05 and calculated using GraphPad Prism v. 8.4.3.

[2] = design: method as in PMID 18524759; conditions: cited from earlier work
[3] = system: HepG2 cells and co-cultures at different ratios (1:10, 1:5, and 1:2); test: Gene expression (RT-qPCR) of oxidative stress, GSH-related and apoptotic genes in treated cultures; assay type: cell-based, human
Source text: Total RNA was extracted using the RNeasy Plus Mini Kit (Qiagen, Madrid, Spain), and was reverse transcribed as described elsewhere. Diluted cDNA was amplified using LightCycler DNA Master SYBR Green I (Roche Applied Science, Barcelona, Spain) and the appropriate primers (Supplementary Table S2) were amplified using a LightCycler 480 Instrument (Roche Applied Science, Barcelona, Spain). For normalization, porphobilinogen deaminase (PBGD), TATA box binding protein (TBP), Large Ribosomal Subunit Protein UL10 (RPLP0), and actin were used. During each amplification, a reference calibrator cDNA, made from a pool of human livers, was included. The relative mRNA expression was calculated using the LightCycler Relative Quantification Analysis software verson 1.5.0.39. Based on PCR efficiencies and the cycle thresholds, the relative concentration of the target and reference cDNAs and their ratio were determined. Additionally, gene expression analysis of test systems alone or treated with the selected toxic compounds was also performed as indicated in Section 2.3.2. For toxicotranscriptomics studies, cells were seeded in P12-well plates at a density of 47,000 cells/cm^2.

[4] = system: HepG2 cells; test: MTT cytotoxicity in HepG2 monocultures; assay type: cell-based, human; conditions: for CC50: Homo sapiens, HepG2 monoculture, 24 h exposure, in presence of LPS and IFN-γ, read-out: IC50 values; for effects on the viability: LPS and IFN-γ together, HepG2 cells, Supplementary Figure S1
Procedure: HepG2 cells (ECACC No. 85011430) were cultured in Ham’s F-12/Leibovitz L-15 (1:1 v/v), supplemented with 7% FBS, 50 U of penicillin/mL, and 50 μg of streptomycin/mL.
HepG2 cells were seeded at a density of 47,000 cells/cm^2 as a monoculture control for all the experiments.
as §1, §2

[5] = system: co-cultures of HepG2 and M1-THP-1 cells; test: MTT cytotoxicity in direct co-cultures of HepG2 and M1-THP-1 macrophages; assay type: cell-based; conditions: Homo sapiens, HepG2, 24 h, 24 h exposure
Procedure: (§3) THP-1 cells were differentiated to macrophages via incubation with phorbol-12-myrsitate 13-acetate (PMA, 20 or 50 ng/mL) for 72 h. After differentiation, THP-1 cells became adherent with typical macrophage morphology. To generate M1 macrophages, cells were then stimulated with LPS (1 µg/mL) in the presence or absence of interferon γ (IFN-γ) (20 ng/mL) as described in Figure 1.
For subculturing purposes, cells (HepG2 or THP-1) were detached via treatment with 0.25% trypsin/0.02% EDTA at 37 °C. In order to determine the effect of pro-inflammatory macrophages on HepG2 cells, different co-culture conditions were tested. Co-culture proportions were 1:10, 1:5, and 1:2 (M1:HepG2), respectively. Cells were seeded at 47,000 cells/cm^2 per condition and co-culture media consisted of HepG2 and M1-THP-1 cell culture media (1:1). The schedule followed for co-culturing HepG2 cells and M1-THP-1 macrophages is exemplified in Figure 2.
as §1, §2

[6] = system: THP-1 cells; test: Viability of THP-1 cells after differentiation to pro-inflammatory macrophages; assay type: cell-based, human; conditions: PMA 50 ng/mL for differentiation followed by LPS and IFN-γ
Procedure: as §3

[7] = 100 µM, compared to non-treated cells

| Molecule | concentrations producing significant cell death / decrease in viability [1] | effect on viability in co-cultures compared to monocultures of HepG2 cells [1] | Cmax [2] | mRNA levels of Nfr2 pathway, GSH-related enzymes and apoptotic genes ([3]; 25 µM, 24 h, compared to non-treated cultures) | CC50 [4] | IC50 ([5]; Co-culture 1.10 (M1:HepG2)) | IC50 ([5]; Co-culture 1.2 (M1:HepG2)) | IC50 ([5]; Co-culture 1.5 (M1:HepG2)) | viability after differentiation [6] | mRNA levels of Nfr2 pathway, GSH-related enzymes and apoptotic genes [3, 7] | mRNA levels of Nfr2 pathway, GSH-related enzymes and apoptotic genes ([3]; 25 µM, 24 h, compared to non-treated cultures, listed as TVX) | effects on the viability [4] |
| --- | --- | --- | --- | --- | --- | --- | --- | --- | --- | --- | --- | --- |
| C[C@H]1COc2c(N3CCN(C)CC3)c(F)cc3c(=O)c(C(=O)O)cn1c23 [Levofloxacin] | > 750 µM | no synergic effect was observed | 15.7 µM | did not significantly change the gene expression | > 800 µM | > 800 µM | > 800 µM | > 800 µM | – | – | – | – |
| CCCCCCCCCCCCCC(=O)O[C@@H]1[C@@H](C)[C@@]2(O)[C@@H](C=C(CO)C[C@]3(O)C(=O)C(C)=C[C@@H]23)[C@@H]2C(C)(C)[C@]12OC(C)=O [PMA, phorbol-12-myrsitate 13-acetate] | – | – | – | – | – | – | – | – | 79 ± 5 | – | – | – |
| CN(CCOc1ccc(CC2SC(=O)NC2=O)cc1)c1ccccn1 (stereo not drawn) [Rosiglitazone] | higher than 200 µM | no significant differences between the test systems were found | – | – | > 250 µM | > 250 µM | > 250 µM | > 250 µM | – | produced increases in the expression of GCLM, TXNRD1, and DDIT | – | – |
| Cc1c(C)c2c(c(C)c1O)CCC(C)(COc1ccc(CC3SC(=O)NC3=O)cc1)O2 (stereo not drawn) [Troglitazone] | higher than 100 µM | decrease in the viability was more significant in the co-cultures at the highest ratios of M1 cells | – | – | 223 µM | 208 µM | 188 µM | 203 µM | – | increased the GCLM, DDIT, and TXNRD1 levels and reduced the GSTA2, GSTA4, GSTT1, and GPX2 levels | – | – |
| N[C@@H]1[C@H]2CN(c3nc4c(cc3F)c(=O)c(C(=O)O)cn4-c3ccc(F)cc3F)C[C@@H]12 [Trovafloxacin] | higher than 50 µM | A synergistic effect was detected in the co-cultures | 4.1 µM | – | 675 µM | 531 µM | 74 µM | 529 µM | – | – | reduced the GSTT1, GSTT2, GSTA2, GSTA4, NNQO1, GPX1, GPX2, and GPX4 levels in all the culture conditions; also recorded: Increased levels of AT4 and SOD2 | – |
| lipopolysaccharide [LPS] | – | – | – | – | – | – | – | – | – | – | – | No significant effects on the viability |
| B1 | – | – | – | – | – | – | – | – | – | – | – | No significant effects on the viability |
